The values that follow come from patent US8314132B2, “5-aryl-4-(5-substituted 2,4-dihydroxyphenyl)-1,2,3-thiadiazoles as inhibitors of Hsp90 chaperone and the intermediates for production thereof” (Biotechnologijos Institutas, priority 2008, dated 2012).

Assay [1] relates to U2OS (osteosarcoma) cells. The assay is described as follows: Growth inhibition (GI50), XTT cell viability assay, U2OS. The format is cell-based. As to conditions: Homo sapiens, 72 h, 3 days, read-out: growth inhibition constants (GI50), U2OS. The protocol: (§1) The growth inhibition constants of the compounds were determined in two cancer cell lines: U2OS (osteosarcoma) and HeLa (cervical carcinoma). Cells were maintained in DMEM (HeLa) and a 50-50% mixture of DMEM and F-12 media (U2OS) supplemented with 10% fetal bovine serum. Stock solutions (20 mM) of the tested compounds were prepared in 100% dimethyl-sulfoxide (DMSO). Cells, cultured in 24-well plates, were subjected to a range of concentrations of the compounds ([…]) at 0.25% DMSO. After 3 days, cell viability was assayed using XTT (sodium salt of 2,3-bis[2-Methoxy-4-nitro-5-sulfophenyl]-2H-tetrazolium-5-carboxyanilide inner salt) and PMS (phenazine methosulfate) reagents (Scudiero et al. 1988. Cancer Res. 48, 4827-4833). Stock solutions of XTT (1 mg/ml) and PMS (1.53 mg/ml) were prepared in Hank's buffered saline (HBS). Culture medium in each well was replaced by 100 μl of OptiMEM media (Life technologies) containing 35 μg/ml XTT and 0.27 μg/ml PMS. Cells were returned to the incubator for 15-20 min. Quantity of viable cells in each well was evaluated spectrophotometrically measuring the absorbance of XTT formazan at 470 nm. Each experiment was run in duplicate.

The test system of assay [2] is HeLa (cervical carcinoma) cells. As to the kind of experiment: Growth inhibition (GI50), XTT cell viability assay, HeLa. The format is cell-based. As to conditions: Homo sapiens, 72 h, 3 days, read-out: GI50 constants, HeLa. The method, then:
as §1

The structures appear in SMILES notation.

On to `COc1ccc(-c2snnc2-c2cc(Cl)c(O)cc2O)cc1` [compound 3a, 4-(5-chloro-2,4-dihydroxyphenyl)-5-(4-methoxyphenyl)-1,2,3-thiadiazole], for which the figures for the GI50 in assay [1] and in assay [2] were 8.4 ± 1.2 µM and 2.5 ± 0.1 µM, respectively.

Take `CCOc1ccc(-c2snnc2-c2cc(Cl)c(O)cc2O)cc1` [compound 3b, 4-(5-chloro-2,4-dihydroxyphenyl)-5-(4-ethoxyphenyl)-1,2,3-thiadiazole]: the GI50 in assay [1] came to 15.1 ± 3.4 µM; in assay [2] it was 4.2 ± 0.4 µM.

Consider `Cc1ccc(-c2snnc2-c2cc(Cl)c(O)cc2O)cc1` [compound 3c, 4-(5-chloro-2,4-dihydroxyphenyl)-5-(4-methylphenyl)-1,2,3-thiadiazole], for which the 50% growth inhibitory concentration (GI50) was found to be 7.1 ± 0.1 µM in assay [1] and 3.3 ± 0.1 µM in assay [2].

Take `COc1ccc(-c2snnc2-c2cc(Cl)c(O)cc2O)cc1OC` [compound 3d, 4-(5-chloro-2,4-dihydroxyphenyl)-5-(3,4-dimethoxyphenyl)-1,2,3-thiadiazole]: the 50% growth inhibitory concentration (GI50) in assay [1] was 11.5 ± 0.1 µM; in assay [2], 3.6 ± 0.3 µM.

Turning to `CCOc1ccc(-c2snnc2-c2cc(CC)c(O)cc2O)cc1` [compound 3e, 4-(5-ethyl-2,4-dihydroxyphenyl)-5-(4-ethoxyphenyl)-1,2,3-thiadiazole], the GI50 stood at 0.65 ± 0.08 µM in assay [1] and 0.7 ± 0.04 µM in assay [2].
